# Data taken from paper PMC6104039 (Nature Communications, 2018).
# Where “and” joins values, the source holds several entries; their conditions need not be identical. Identical values can stand only once. Entries after “also recorded” stand apart in the source; their conditions may differ.
# How the values were obtained:
# [1] = target: T1, recombinant human sphingosine kinase 2 (Homo sapiens, UniProt Q9NRA0); test: Sphingosine kinase assay with NBD-dihydrosphingosine, TLC; format: biochemical; conditions: 10 μM
# T1 construct: purchased R&D Systems
# Experimental: Sphingosine kinase assays were performed using fluorescent NBD-dihydrosphingosine[63],[64]. […] Reactions were stopped with 100 μL methanol, and 5 μL amounts were resolved on Silica Gel 60 thin layer chromatography (TLC) plates using butanol:acetic acid:water (3:1:1). The fluorescent NBD-dihydrosphingosine 1-phosphate band was quantified using a BioRad ChemiDoc imaging system with excitation by UV light.
# Supplementary Figure 2. […] Activity of recombinant
# human sphingosine kinases 1 and 2 (SphK1 and 2) was assessed in the presence of 10 µM
# Activity is expressed as a percentage of the vehicle control.
# [2] = P053 accumulation in tissues, LC-MS/MS; format: in vivo, mice; conditions: 5 mg/kg daily for 2 weeks
# [3] = Detection of P053-phosphate in plasma of dosed mice, LC-MS/MS; format: in vivo; conditions: 5 mg/kg/day for 6 weeks
# Experimental: LC-MS/MS was performed on a TSQ Quantum Access triple quadrupole mass spectrometer in positive ion mode, coupled to an Accela UPLC system (Thermo Scientific). Extracts (20 μL) were separated on a 2 × 100 mm Eclipse XDB-C8 column with 1.8 μm particle size (Agilent Technologies), using a 7.5 min binary HPLC gradient: 0 min, 70% B ([…]); 1.5 min, 70% B; 3.5 min, 95% B; 4 min, 95% B; 4.5 min, 70% B; 7.5 min 70% B. Mobile phase A: 2 mM ammonium formate/1% formic acid in water; mobile phase B: 1 mM ammonium formate/1% formic acid in methanol. The flow rate was 0.4 mL min^−1, increasing to 0.5 mL min^−1 from 5–7 min, and column oven 30 °C. […] Visualisation and quantification of peaks was performed using Thermo Fisher’s XCalibur software v2.2.
# Supplementary Figure 8. P053 is not phosphorylated in situ or in vivo. (a-b) HEK293 cells […]
# LC-MS/MS analysis. Chromatograms for (a) FTY720 and its phosphate, and (b) P053 and its putative phosphate are shown. […]
# mg/kg/day for 6 weeks, corresponding to a plasma concentration of ~300 nM. No peak is […]
# (1 picture or pasted object on this page, not shown here)
# [4] = test system: cerebellum; test: Ceramide, SM and HexCer levels in cerebellum; format: in vivo, mice; conditions: Chow + P053; individual mice, raw data for Supplementary Figure 7;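 for Cer 18:1/18:0 content of cerebellum: pmol per mg cerebellum tissue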;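 for Cer 18:1/24:0 content of cerebellum: pmol per mg cerebellum tissue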;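 for Cer 18:1/24:1 content of cerebellum: pmol per mg cerebellum tissue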;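 for Cer 18:2/18:0 content of cerebellum: pmol per mg cerebellum tissue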;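 for HexCer 18:1 content of cerebellum: pmol per mg cerebellum tissue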;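 for HexCer 20:1 content of cerebellum: pmol per mg cerebellum tissue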;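 for HexCer 22:1 content of cerebellum: pmol per mg cerebellum tissue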;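 for HexCer 24:0 content of cerebellum: pmol per mg cerebellum tissue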;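 for SM 32:1 content of cerebellum: pmol per mg cerebellum tissue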;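 for SM 34:2 content of cerebellum: pmol per mg cerebellum tissue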;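 for SM 36:1 content of cerebellum: pmol per mg cerebellum tissue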;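 for SM 36:2 content of cerebellum: pmol per mg cerebellum tissue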;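 for SM 40:1 content of cerebellum: pmol per mg cerebellum tissue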;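 for SM 40:2 content of cerebellum: pmol per mg cerebellum tissue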;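 for SM 42:1 content of cerebellum: pmol per mg cerebellum tissue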;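 for SM 42:2 content of cerebellum: pmol per mg cerebellum tissue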
# Description: Supplementary Figure 7. […] Ceramide, SM, and HexCer […]
# levels in the cerebellum of vehicle- or P053-treated mice on a chow or HFD. N = 10 mice per group, except for chow vehicle group (n = 9). Mean ± SEM shown. No lipids were […]
# comparisons. C18:0 HexCer was 45% lower in the P053-treated compared to the vehicle-treated HFD group (unadjusted P value = 0.02; adjusted value P = 0.16). Raw data for these figures is provided in Supplementary Data File 1.
# T1 sequence (Q9NRA0 whole entry): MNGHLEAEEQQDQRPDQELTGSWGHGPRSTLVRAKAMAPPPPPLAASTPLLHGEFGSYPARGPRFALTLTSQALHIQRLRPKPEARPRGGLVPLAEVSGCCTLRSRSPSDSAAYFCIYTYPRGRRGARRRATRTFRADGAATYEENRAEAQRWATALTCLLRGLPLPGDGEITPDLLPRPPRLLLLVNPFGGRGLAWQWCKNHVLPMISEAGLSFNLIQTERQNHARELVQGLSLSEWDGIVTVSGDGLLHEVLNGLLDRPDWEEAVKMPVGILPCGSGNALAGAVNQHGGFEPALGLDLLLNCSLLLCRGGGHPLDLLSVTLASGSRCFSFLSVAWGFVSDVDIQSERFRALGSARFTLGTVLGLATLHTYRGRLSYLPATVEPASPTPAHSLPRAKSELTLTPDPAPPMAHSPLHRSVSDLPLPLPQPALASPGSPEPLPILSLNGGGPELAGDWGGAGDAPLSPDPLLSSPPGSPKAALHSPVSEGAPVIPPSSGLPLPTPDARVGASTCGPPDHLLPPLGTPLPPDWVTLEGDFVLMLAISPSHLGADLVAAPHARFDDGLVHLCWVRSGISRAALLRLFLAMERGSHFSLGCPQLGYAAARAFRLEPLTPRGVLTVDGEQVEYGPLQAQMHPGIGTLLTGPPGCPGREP
smiles,measurement,setting,value
"C[C@@](N)(CO)CCc1ccc(OCc2ccc(Cl)c(Cl)c2)cc1 [P053, (S)-2-amino-4-(4-(3,4-dichlorobenzyloxy)phenyl)-2-methylbutan-1-ol]",inhibition of sphingosine kinase 2,[1],did not inhibit; also recorded: does not inhibit; also recorded: no inhibitory activity
same,compound distribution in tissues,[2],higher in liver and kidney than in muscle and adipose tissue
same,levels of the compound in brain tissue compared to SkM,[2],three-fold lower
same,uptake in the liver,[2],substantial uptake
same,phosphate of the compound in plasma of mice,[3],only background signal is detected; also recorded: not detected
same,Cer 18:1/16:0 content of cerebellum,[4],3.617 and 2.396 and 2.239 and 1.878 and 1.763 and 7.091 and 4.235 and 4.186 and 2.745 and 2.729
same,Cer 18:1/18:0 content of cerebellum,[4],141.97 and 85.5119 and 108.595 and 104.792 and 97.4561 and 431.392 and 196.381 and 275.197 and 135.779 and 146.615
same,Cer 18:1/20:0 content of cerebellum,[4],10.8793 and 8.155 and 10.4755 and 10.5072 and 6.176 and 36.1314 and 20.5959 and 26.7359 and 12.6268 and 16.6128
same,Cer 18:1/22:0 content of cerebellum,[4],14.5276 and 15.0246 and 22.6132 and 25.2761 and 10.65 and 51.7937 and 37.5604 and 49.7318 and 29.1858 and 28.3511
same,Cer 18:1/24:0 content of cerebellum,[4],25.164 and 39.1513 and 61.4338 and 64.1688 and 24.2127 and 137.911 and 88.346 and 158.631 and 89.2495 and 92.5091
same,Cer 18:1/24:1 content of cerebellum,[4],194.92 and 106.297 and 150.541 and 182.076 and 61.3337 and 311.08 and 260.185 and 253.268 and 147.127 and 119.244
same,Cer 18:2/18:0 content of cerebellum,[4],6.1678 and 7.469 and 7.847 and 9.952 and 5.015 and 15.2517 and 13.7543 and 19.4608 and 12.754 and 10.8001
same,HexCer 16:0 content of cerebellum,[4],2.618 and 11.905 and 12.0787 and 17.3566 and 8.981 and 4.913 and 10.616 and 11.083 and 11.1713 and 10.2043
same,HexCer 18:0 content of cerebellum,[4],28.8093 and 286.922 and 231.007 and 375.961 and 165.705 and 81.8257 and 140.616 and 234.577 and 281.805 and 232.737
same,HexCer 18:1 content of cerebellum,[4],4.066 and 35.919 and 27.4449 and 39.8082 and 28.3147 and 12.0017 and 18.6127 and 33.0051 and 39.5714 and 38.2232
same,HexCer 20:0 content of cerebellum,[4],5.379 and 62.6592 and 42.0891 and 61.8563 and 40.4642 and 16.7817 and 19.6222 and 44.5602 and 56.0811 and 52.6344
same,HexCer 20:1 content of cerebellum,[4],0.8503 and 3.88 and 2.4108 and 3.569 and 3.668 and 1.176 and 1.073 and 2.879 and 4.092 and 4.073
same,HexCer 22:0 content of cerebellum,[4],103.858 and 933.202 and 709.42 and 853.076 and 744.844 and 421.086 and 403.774 and 821.636 and 996.669 and 1011.42
same,HexCer 22:1 content of cerebellum,[4],67.4582 and 171.007 and 113.764 and 201.906 and 106.093 and 35.9387 and 77.6418 and 92.6997 and 107.257 and 90.5981
same,HexCer 24:0 content of cerebellum,[4],564.043 and 4618.59 and 3773.48 and 4286.71 and 3653.78 and 2395.46 and 2157.01 and 3975.05 and 5039.63 and 4758.34
same,HexCer 24:1 content of cerebellum,[4],3233.35 and 7019.2 and 5377.98 and 7770.21 and 6449.16 and 3511.89 and 4048.72 and 5184.76 and 6290.34 and 5656.27
same,SM 32:1 content of cerebellum,[4],7.744 and 10.8885 and 9.082 and 12.3443 and 9.858 and 7.664 and 8.692 and 8.551 and 8.187 and 8.4615
same,SM 34:1 content of cerebellum,[4],82.5407 and 146.305 and 94.5019 and 129.483 and 151.913 and 73.8551 and 80.0167 and 90.7654 and 102.782 and 113.569
same,SM 34:2 content of cerebellum,[4],7.207 and 9.9108 and 8.648 and 11.4512 and 8.062 and 5.446 and 4.538 and 7.185 and 8.297 and 8.329
same,SM 36:1 content of cerebellum,[4],194.844 and 464.875 and 291.749 and 380.257 and 596.135 and 225.303 and 199.676 and 294.675 and 315.392 and 396.468
same,SM 36:2 content of cerebellum,[4],59.5005 and 77.3429 and 59.1592 and 95.459 and 61.3204 and 42.7823 and 27.3474 and 61.4896 and 55.0172 and 56.8047
same,SM 38:1 content of cerebellum,[4],38.445 and 174.02 and 119.141 and 145.805 and 204.374 and 106.701 and 86.1831 and 141.777 and 157.803 and 199.243
same,SM 38:2 content of cerebellum,[4],7.207 and 11.8634 and 6.682 and 10.3765 and 10.2552 and 3.609 and 2.903 and 5.065 and 7.083 and 7.8
same,SM 40:1 content of cerebellum,[4],51.2464 and 304.001 and 220.117 and 327.562 and 242.07 and 125.331 and 158.353 and 223.684 and 258.853 and 295.067
same,SM 40:2 content of cerebellum,[4],51.3559 and 98.4003 and 64.6125 and 113.428 and 67.3016 and 27.1328 and 51.0354 and 51.6641 and 60.1105 and 65.3939
same,SM 42:1 content of cerebellum,[4],47.6271 and 371.292 and 288.623 and 388.513 and 255.841 and 158.489 and 203.273 and 296.49 and 332.331 and 358.331
same,SM 42:2 content of cerebellum,[4],660.19 and 1132.13 and 807.257 and 1283.01 and 802.501 and 434.477 and 634.337 and 659.388 and 719.281 and 714.687
